Measured values taken from PMC9144537, “Pharmacokinetics, Prostate Distribution and Metabolic Characteristics of Four Representative Flavones after Oral Administration of the Aerial Part of Glycyrrhiza uralensis in Rats” (Molecules, 2022).
“Also recorded” adds a separate entry of the source.

Tests used:
[1] = Qualitative detection of prototype flavones and metabolites in rat plasma, prostate, urine and feces by UPLC-Q-Exactive Orbitrap-MS after oral aerial part of G. uralensis; conditions: rats, single oral 1 g/kg extract; for Distribution of protoflavones: Plasma: mixed plasma 0.25-48 h, + not defined
Description: Forty-eight rats were randomly divided into four groups, namely plasma (n = 6), prostate (n = 30, there were five time points, with six individuals for each time point), excretion (n = 6) and blank (n = 6). The plasma, prostate, and excretion groups were gavaged with 1 g/kg of Glycyrrhiza uralensis sample, whereas the blank group was administered 0.5% CMC-Na. Biological samples were collected after the mice were dosed once.
The tube was placed at room temperature for 1 h; then, it was centrifuged at 4 °C (10,000 rpm, 10 min). Upper plasma of different time points was separated for 50 μL and mixed and shaken well. Mixed plasma was collected at 50 μL and the plasma samples (50 μL) were vortex-mixed with 250 μL of methanol. The solution was centrifuged at 10,000 rpm for 10 min to separate the protein from the organic phase, and then the upper supernatant was collected. Then, the supernatant was transferred and evaporated to dryness under a gentle stream of nitrogen at room temperature. The residue was reconstituted in 50 µL methanol, mixed for 1 min, and centrifuged at 10,000 rpm for 10 min. At last, 20 μL of the resulting supernatant was applied to UPLC–MS/MS analysis.
UPLC-Q-Exactive Orbitrap-MS analysis was performed on a Dionex Ultimate 3000 ultra-high performance liquid system (ThermoFisher) consisting of a binary pump, a DAD detector, a column chamber, an automatic sampler and an online degasser. The sample was separated on a Waters ACQUITY UPLC HSS T3 C18 column (2.1 mm × 100 mm, 1.8 μm), with a column temperature of 30 °C, automatic sampler temperature of 10 °C, and flow rate of 0.2 mL·min^−1. The mobile phases A and B were acetonitrile with 0.1% formic acid and aqueous solution with 0.1% formic acid, respectively. […] The injection volume of the sample was 5 μL.
The MS conditions were as follows: detection mode: positive and negative ion modes; scan range: 100–1200; resolution: 70,000; sheath gas flow rate: 40; aux gas flow rate: 15; spray voltage [kV]: 3.20; capillary temp: 320 °C; aux gas heater temp: 350 °C; AGC target: 3,000,000; maximum IT (ms): 100; sheath gas: 40/45; aux gas flow: 11/10; sweep gas: 0; S-lens RF level: 55; and aux gas heater temperature: 220 °C.

[2] = Pharmacokinetics of four flavonoids in rat plasma after oral aerial part of G. uralensis extract (HPLC-MS/MS); format: in vivo, Sprague Dawley (SD) rats; conditions: for AUC(0-inf) / AUC(0-t) / Cmax / Tmax / half-life / MRT last / MRT inf: Sprague Dawley; for MRT last: day 31, n = 6, read-out: MRT0–t; for MRT inf: day 31, n = 6, read-out: MRT0–∞; for time at which steady state was reached: 3 h after daily oral extract 1 g/kg
Description: For clean-up, the plasma samples (50 μL) were vortex-mixed with 10 μL of IS and 250 μL of methanol. […] At last, 5 μL of the resulting supernatant was applied to HPLC–MS/MS analysis.
(§1) The analysis was performed on the AB SCIEX QTRAP 5500 (USA) triple quadrupole mass spectrometer, which was performed in SRM and positive and negative ionization modes. LC separation is run on XSelect HSS T3 analytical column (2.1 × 100 mm, 2.5 μm, Waters), equipped with Exion LC AD system (AB Sciex) infinite binary pump. Acetonitrile was used as solvent A and 0.1% formic acid aqueous solution was used as solvent B and the flow rate was 0.1 mL/min. Using gradient elution, the initial condition is that 90% solvent B drops to 0% B within 17 min and maintains it for 2 min, returns to the initial […] at 19.1 min, and ends an analysis at 22 min. The temperature of the column oven is maintained at 35 °C. The sample is kept at 10 °C and the injection volume is 5 μL. The MS parameters are as follows: ESI ion source temperature is 500 °C; curtain gas: 30 psi; collision-activated dissociation (CAD) gas settings: medium, ion spray voltage: −4500 V, ion gas 1 and 2: 50 psi. The data acquisition software is AB SCIEX Analyst 1.7.1. The specific parameters are as Table 8.

[3] = Prostate distribution of four flavonoids after oral aerial part of G. uralensis (HPLC-MS/MS); format: in vivo, Sprague Dawley (SD) rats; conditions: rats, 0.5-8 h after oral extract 1 g/kg on day 31, n = 6
Description: as §1

[4] = Stability test of analytes in rat prostate homogenate QC samples; format: in vitro ADME; conditions: for Stability, Mean ± S.D., 24 h at room temperature, low QC / Stability, Mean ± S.D., freeze-thaw cycles, low QC: nominal puerarin 0.100, luteolin 0.200, kaempferol 2.000, pinocembrin 2.000, n = 3; for Stability, Mean ± S.D., 24 h at room temperature, medium QC / Stability, Mean ± S.D., freeze-thaw cycles, medium QC: nominal puerarin 1.000, luteolin 5.000, kaempferol 100.000, pinocembrin 50.000, n = 3; for Stability, Mean ± S.D., 24 h at room temperature, high QC / Stability, Mean ± S.D., freeze-thaw cycles, high QC: nominal puerarin 5.000, luteolin 10.000, kaempferol 200.000, pinocembrin 100.000, n = 3; for Stability, Mean ± S.D., freeze-thaw cycles, low QC / Stability, Mean ± S.D., freeze-thaw cycles, medium QC / Stability, Mean ± S.D., freeze-thaw cycles, high QC: three freeze-thaw cycles
Description: All of the solutions were stored at 4℃ until analysis. Stability investigation of the four components in the plasma and prostate homogenates was performed by analyzing replicates (n = 3) of the three levels of QC samples under three different conditions. Room temperature stability was assessed after the exposure of untreated QC samples at room temperature for 24 h. Freeze and thaw stability was evaluated after three freeze (−20 °C)–thaw (room temperature) cycles.

[5] = tested on: primary liver cell model; design: method as in Lu et al. [65]; conditions: ref Lu et al. [65]; cited from earlier work
[6] = oral extract 1 g/kg every day, day 31, n = 6

C[C@@H]1O[C@@H](OC[C@H]2O[C@@H](Oc3c(-c4ccc(O)c(O)c4)oc4cc(O)cc(O)c4c3=O)[C@H](O)[C@@H](O)[C@@H]2O)[C@H](O)[C@H](O)[C@H]1O [Rutin]
Distribution of protoflavones: Plasma [1]: detected

O=c1c(O)c(-c2ccc(O)cc2)oc2cc(O)cc(O)c12 [Kaempferol]
AUC(0-inf) [2, 6]: 23.8 ± 0.86 ng·h/mL
AUC(0-t) [2, 6]: 18.8 ± 1.18 ng·h/mL
Cmax [2, 6]: 1.27 ± 0.06 ng/mL
Tmax [2, 6]: 4 ± 0.17 h
half-life [2, 6]: 19 ± 1.46 h
MRT last ([2]; oral extract 1 g/kg every day): 20.1 ± 0.84 h
MRT inf ([2]; oral extract 1 g/kg every day): 31.8 ± 1.22 h
concentration in prostate (ranking, in words) [3]: highest concentration; also recorded: kaempferol > pinocembrin > luteolin > puerarin; also recorded: particularly high
Stability, Mean ± S.D., 24 h at room temperature, low QC [4]: 2.000 ± 0.265 μg·mL^−1/μg·g^−1
Stability, Mean ± S.D., 24 h at room temperature, medium QC [4]: 99.133 ± 3.557 μg·mL^−1/μg·g^−1
Stability, Mean ± S.D., 24 h at room temperature, high QC [4]: 201.667 ± 3.215 μg·mL^−1/μg·g^−1
Stability, Mean ± S.D., freeze-thaw cycles, low QC [4]: 1.833 ± 0.058 μg·mL^−1/μg·g^−1
Stability, Mean ± S.D., freeze-thaw cycles, medium QC [4]: 96.667 ± 2.082 μg·mL^−1/μg·g^−1
Stability, Mean ± S.D., freeze-thaw cycles, high QC [4]: 202.333 ± 2.082 μg·mL^−1/μg·g^−1

O=c1c(-c2ccc(O)cc2)coc2c([C@@H]3O[C@H](CO)[C@@H](O)[C@H](O)[C@H]3O)c(O)ccc12 [Puerarin]
AUC(0-inf) [2, 6]: 242 ± 2.45 ng·h/mL
AUC(0-t) [2, 6]: 238 ± 23.4 ng·h/mL
Cmax [2, 6]: 23.8 ± 1.05 ng/mL
Tmax [2, 6]: 0.5 ± 0.04 h
MRT last ([2]; oral extract 1 g/kg every day): 14.4 ± 1.21 h
MRT inf ([2]; oral extract 1 g/kg every day): 15.1 ± 1.71 h
t1/2 [2, 6]: 6.43 ± 0.20 h
concentration in prostate (ranking, in words) [3]: kaempferol > pinocembrin > luteolin > puerarin
Stability, Mean ± S.D., 24 h at room temperature, medium QC [4]: 1.097 ± 0.138 μg·mL^−1/μg·g^−1
Stability, Mean ± S.D., 24 h at room temperature, high QC [4]: 4.940 ± 0.056 μg·mL^−1/μg·g^−1
Stability, Mean ± S.D., freeze-thaw cycles, low QC [4]: 0.100 ± 0.005 μg·mL^−1/μg·g^−1
Stability, Mean ± S.D., freeze-thaw cycles, high QC [4]: 5.057 ± 0.224 μg·mL^−1/μg·g^−1
Distribution of four representative flavonoids and metabolites: Plasma ([1]; + not defined (detected)): detected
Distribution of protoflavones: Plasma [1]: detected

COc1ccc(-c2coc3cc(O[C@@H]4O[C@H](CO)[C@@H](O)[C@H](O)[C@H]4O)ccc3c2=O)cc1 [Ononin]
Distribution of protoflavones: Plasma [1]: detected

O=c1c(O[C@@H]2O[C@H](CO)[C@@H](O)[C@H](O)[C@H]2O)c(-c2ccc(O)c(O)c2)oc2cc(O)cc(O)c12 [Isoquercitrin]
Distribution of protoflavones: Plasma [1]: detected

O=c1c(O[C@@H]2O[C@H](CO)[C@H](O)[C@H](O)[C@H]2O)c(-c2ccc(O)c(O)c2)oc2cc(O)cc(O)c12 [Hyperoside]
Distribution of protoflavones: Plasma [1]: detected

O=c1cc(-c2ccc(O)cc2)oc2c([C@@H]3O[C@H](CO)[C@@H](O)[C@H](O)[C@H]3O)c(O)cc(O)c12 [Vitexin]
Distribution of protoflavones: Plasma [1]: detected

O=c1c(O[C@@H]2O[C@H](CO)[C@@H](O)[C@H](O)[C@H]2O)c(-c2ccc(O)cc2)oc2cc(O)cc(O)c12 [Astragalin]
Distribution of protoflavones: Plasma [1]: detected

O=C1C[C@@H](c2ccccc2)Oc2cc(O)cc(O)c21 [Pinocembrin]
time at which steady state was reached [2]: 5 days
AUC(0-inf) [2, 6]: 23.8 ± 1.29 ng·h/mL
AUC(0-t) [2, 6]: 21.8 ± 0.73 ng·h/mL
Cmax [2, 6]: 1.18 ± 0.06 ng/mL
Tmax [2, 6]: 1.5 ± 0.05 h
half-life [2, 6]: 13.2 ± 0.72 h
MRT last ([2]; oral extract 1 g/kg every day): 19.1 ± 0.82 h
MRT inf ([2]; oral extract 1 g/kg every day): 23.3 ± 0.83 h
concentration in prostate (ranking, in words) [3]: kaempferol > pinocembrin > luteolin > puerarin
Stability, Mean ± S.D., 24 h at room temperature, low QC [4]: 1.923 ± 0.076 μg·mL^−1/μg·g^−1
Stability, Mean ± S.D., 24 h at room temperature, medium QC [4]: 51.000 ± 3.000 μg·mL^−1/μg·g^−1
Stability, Mean ± S.D., 24 h at room temperature, high QC [4]: 102.000 ± 2.646 μg·mL^−1/μg·g^−1
Stability, Mean ± S.D., freeze-thaw cycles, low QC [4]: 1.867 ± 0.153 μg·mL^−1/μg·g^−1
Stability, Mean ± S.D., freeze-thaw cycles, medium QC [4]: 51.333 ± 1.528 μg·mL^−1/μg·g^−1
Stability, Mean ± S.D., freeze-thaw cycles, high QC [4]: 102.333 ± 2.887 μg·mL^−1/μg·g^−1

O=c1cc(-c2ccc(O)c(O)c2)oc2cc(O)cc(O)c12 [Luteolin]
time at which steady state was reached [2]: 9 days
AUC(0-inf) [2, 6]: 51.6 ± 1.98 ng·h/mL
Tmax [2, 6]: 0.87 ± 0.05 h
half-life [2, 6]: 31.1 ± 1.17 h
MRT last ([2]; oral extract 1 g/kg every day): 20.7 ± 1.91 h
MRT inf ([2]; oral extract 1 g/kg every day): 44 ± 1.72 h
AUC0–t [2, 6]: 35.01 ± 0.81 ng·h/mL
concentration in prostate (ranking, in words) [3]: kaempferol > pinocembrin > luteolin > puerarin
Stability, Mean ± S.D., 24 h at room temperature, low QC [4]: 0.194 ± 0.005 μg·mL^−1/μg·g^−1
Stability, Mean ± S.D., 24 h at room temperature, medium QC [4]: 4.963 ± 0.118 μg·mL^−1/μg·g^−1
Stability, Mean ± S.D., 24 h at room temperature, high QC [4]: 9.900 ± 0.458 μg·mL^−1/μg·g^−1
Stability, Mean ± S.D., freeze-thaw cycles, low QC [4]: 0.213 ± 0.031 μg·mL^−1/μg·g^−1
Stability, Mean ± S.D., freeze-thaw cycles, medium QC [4]: 4.833 ± 0.058 μg·mL^−1/μg·g^−1
Stability, Mean ± S.D., freeze-thaw cycles, high QC [4]: 10.433 ± 0.551 μg·mL^−1/μg·g^−1
Phase II metabolites, share of the dosage [5]: 54%
